Patent publication US20240200003A1, “DEVICES AND METHODS FOR IN VITRO MODELING OF METASTATIC CANCER” (XYLYX BIO, INC., priority 2020, published 2024)
pIC50: −log10 of the molar value. Values joined by “and” are separate entries in the source; they are usually repeats but may differ in a detail not shown here. Equal values may be shown once. Read-outs that look alike come from different tables or passages of the source. Each block holds one compound with its values, some of them ahead of it.

Key:
[1] = Diffusion assay through lung ECM hydrogel; format: physicochemical
Description: The difference in IC50 values of the three drugs in this study are attributable to the different cellular mechanism that each drug targets as well as expression of and access to each target. Erlotinib is an inhibitor of epidermal growth factor receptor (EGFR) tyrosine kinase, whereas Etoposide inhibits DNA topoisomerase II, which prevents DNA ligation and ultimately causes DNA strands to break. KPT-185 induces apoptosis as a selective inhibitor of nuclear export (SINE) compound. […] Another important consideration for drug testing in 3D culture systems is drug permeability through the ECM and cell membrane.

[2] = system: Human lung adenocarcinoma A549 cells; test: XTT cell viability / IC50 of anti-cancer drugs, A549 cells in 3D lung tumor model; format: cell-based; conditions: for pIC50: 72 h drug
Description: (§1) Cell Expansion. […] Forming 3D Lung Tumor Model. […] Drug Treatment. […] After 72 hours, cell viability was assayed. […] Cell Proliferation Assay. […] Data Analysis.

[3] = system: Human lung adenocarcinoma Jacket cells; test: XTT cell viability / IC50 of anti-cancer drugs, Jacket cells in 3D lung tumor model; format: cell-based; conditions: for growth inhibition (cell viability): Jacket cells, doses 0.1-10 μM, 3D TissueSpec® Lung ECM Hydrogel and 2D plastic
Description: as §1

[4] = clinical trials; cited from earlier work
[5] = system: MCF-7 and MB-231 breast cancer cells; conditions: previous studies; cited from earlier work
[6] = system: breast cancer cells T47-D; test: Viability assay of breast cancer cells embedded in TissueSpec ECM hydrogels; format: cell-based, human; parameters: dose or concentration left out as unconfirmed; conditions: 72 hours, Bone, Liver, Lung ECM Hydrogels, Matrigel, plastic
[7] = Homo sapiens, A549, 72 h, A549 cells in Matrigel®
[8] = Homo sapiens, A549, 72 h, A549 cells in TissueSpec® Lung ECM Hydrogel (3D)
[9] = Homo sapiens, A549, 72 h, A549 cells on Plastic (no ECM), 2D
[10] = Homo sapiens, 72 h, Jacket cells in Matrigel®, 72 h drug, read-out: IC50
[11] = Homo sapiens, 72 h, Jacket cells in TissueSpec® Lung ECM Hydrogel (3D), 72 h drug, read-out: IC50
[12] = Homo sapiens, 72 h, Jacket cells on Plastic (no ECM), 2D, 72 h drug, read-out: IC50
[13] = Jacket cells in TissueSpec® Lung ECM Hydrogel, reproducibility, two rounds, read-out: IC50 in two separate rounds of testing

- diffusion speed through TissueSpec® Lung ECM Hydrogel [1]: ≥ 1.3 mm/h
SMILES: CC1=CC(C)(C)N(C)c2cc3[o+]c4cc5c(cc4c(-c4cc(NC(=O)c6ccc(CCl)cc6)ccc4C(=O)[O-])c3cc21)C(C)=CC(C)(C)N5C.CC1=CC(C)(C)N(C)c2cc3[o+]c4cc5c(cc4c(-c4ccc(NC(=O)c6ccc(CCl)cc6)cc4C(=O)[O-])c3cc21)C(C)=CC(C)(C)N5C [CellTracker Red CMTPX]

- pIC50 [2, 7]: 4.24
- pIC50 [2, 8]: 3.87
- pIC50 [2, 9]: 4.44
- pIC50 [3, 10]: 5.06
- pIC50 [3, 11]: 5.12
- pIC50 [3, 12]: 5.28
SMILES: C#Cc1cccc(Nc2ncnc3cc(OCCOC)c(OCCOC)cc23)c1 [Erlotinib]
- growth inhibition (cell viability) ([2]; A549 cells, doses 0.1-10 μM, 3D TissueSpec® Lung ECM Hydrogel and plastic): dose-dependent growth inhibition

SMILES: CNC(=O)c1cc(Oc2ccc(NC(=O)Nc3ccc(Cl)c(C(F)(F)F)c3)cc2)ccn1 [sorafenib]
- HCC patient plasma concentration [4]: 2 mg/L and 4 μM

SMILES: COc1cccc2c1C(=O)c1c(O)c3c(c(O)c1C2=O)C[C@@](O)(C(=O)CO)C[C@@H]3O[C@H]1C[C@H](N)[C@H](O)[C@H](C)O1 [doxorubicin]
- resistance when cultured in Matrigel® [5]: more resistant to doxorubicin when cultured in Matrigel®

SMILES: CC/C(=C(\c1ccccc1)c1ccc(OCCN(C)C)cc1)c1ccccc1 [tamoxifen, Tamoxifen]
- differential viability response by substrate [6]: cells embedded in lung and bone ECM are more resistant than cells embedded in liver, matrigel or plastic

- pIC50 [2, 7]: 4.45
- pIC50 [2, 8]: 4.78
- pIC50 [2, 9]: 4.39
- pIC50 [3, 10]: 4.80
- pIC50 [3, 11]: 5.43
- pIC50 [3, 12]: 5.36
- pIC50 ([3]; Homo sapiens, Jacket cells in TissueSpec® Lung ECM Hydrogel, reproducibility, two rounds, read-out: IC50 in two separate rounds of testing): 5.42
- pIC50 ([3]; Jacket cells in Matrigel®, reproducibility, two rounds, read-out: IC50 in two separate rounds of testing): 6.15
- pIC50 [3, 13]: 5.40
SMILES: COc1cc([C@@H]2c3cc4c(cc3[C@@H](O[C@@H]3O[C@@H]5CO[C@@H](C)O[C@H]5[C@H](O)[C@H]3O)[C@H]3COC(=O)[C@H]23)OCO4)cc(OC)c1O [Etoposide]
- growth inhibition (cell viability) [3]: dose-dependent growth inhibition

- pIC50 ([2]; A549 cells in Matrigel®): 5.38
- pIC50 ([2]; A549 cells in TissueSpec® Lung ECM Hydrogel (3D)): 5.64
- pIC50 ([2]; A549 cells on Plastic (no ECM), 2D): 5.06
- pIC50 ([3]; Jacket cells in Matrigel®, 72 h drug, read-out: IC50): 5.37
- pIC50 ([3]; Jacket cells in TissueSpec® Lung ECM Hydrogel (3D), 72 h drug, read-out: IC50): 6.40
- pIC50 [3, 13]: 6.40
- pIC50 ([3]; Jacket cells on Plastic (no ECM), 2D, 72 h drug, read-out: IC50): 6.70
SMILES: COc1cc(-c2ncn(/C=C\C(=O)OC(C)C)n2)cc(C(F)(F)F)c1 [KPT-185]
- growth inhibition (cell viability) [3]: dose-dependent growth inhibition
